Assay results published in publication PMC10647553, “Evaluating the Anti-Melanoma Effects and Toxicity of Cinnamaldehyde Analogues” (Molecules, 2023).
Like-named read-outs stand apart in the source and are kept apart here.

Tests used:
[1] = system: A375 cells; assay: A375 xenograft in nude mice; type: in vivo, BALB/c-nude mice
Description: The 8-week-old female BALB/c-nude mice (18–20 g, specific pathogen-free, SPF) were obtained from the Laboratory Animal Experimental Center of the Academy of Military Medical Sciences (SCXK2012-0004, Beijing, China), and were injected with A375 cells and siENO1-A375 cells (1 × 10^7), respectively. One weeks after the tumor formation, four groups were set up: the “negative control (NC)” group (A375 cells, injected with PBS/day); “siENO1” group (siENO1-A375 cells, injected with PBS/day); “Dacarbazine” group (A375 cells, injected with 10 mg/kg/day dacarbazine); and the “CAD-14” group (A375 cells, injected with 5 mg/kg/day CAD-14). The tumor volume was measured every three days and calculated as length × width^2/2. After two weeks, the mice were sacrificed.
Tumor tissues were isolated from the mice after sacrifice. Then, the tissues were fixed in 4% paraformaldehyde and embedded in paraffin. For immunohistochemistry staining, tissues were stained with Ki67 (GB111141, Servicebio, Wuhan, China). For immunofluorescent staining, tissues were stained with ENO1 (bs-3978R, Bioss, Beijing, China).
Figure 5 CAD-14 inhibited the growth of A375 cells in vivo. (A–C) The A375 cells were transfected with three different recombinant ENO1 retroviral vectors and an NC virus for 72 h; the effect of recombinant retrovirus on ENO1 expression were evaluated via fluorescence photography and Western blotting. Histograms show the intensity ratio. (n = 3). Values represent the means ± SD. ** p < 0.01 versus “NC” group. (D–F) Cells were injected subcutaneously into nude mice. Then, they were treated with Dacarbazine (10 mg/kg/day, as a positive control) or CAD-14 (5 mg/kg/day) for two weeks (the red arrow at day 7 represents the first day of treatment). The tumor volume was calculated (n = 5). (G,H) Immunofluorescent staining of Ki67 and ENO1 to detect proliferation ability and expression of ENO1 in tumor tissues, respectively. Values represent the means ± SD. * p < 0.05 versus “PBS” group.

[2] = system: rats; conditions: intravenous injection; cited from earlier work
[3] = system: hepatocytes; conditions: rat, in vivo, 1100 mg/kg; cited from earlier work
[4] = system: hepatocytes; conditions: mouse, in vivo; cited from earlier work
[5] = system: melanoma cell lines (A375, A875, SK-MEL-1); assay: Initial screening of analogues against melanoma cell lines; type: cell-based; conditions: for activity in initial screening: A375, A875, SK-MEL-1, 0–50 µM, 72 h, Figure 2A–C
Description: (§1) The HepG-2, HUVEC, L-02, HK-2, A375, A549, H8, U251, HeLa, Cal-27, and PANC-1 cells were maintained in a DMEM medium. The TSSCA, SK-MEL-1, and […] cells were cultured in an RPMI-1640 medium, and the A875 cells were cultured in a MEM medium. All cells were supplemented with 10% fetal bovine serum, 100 units/mL penicillin, and streptomycin at 37 °C in 5% CO2. The Cell Counting Kit-8 (CCK-8, bs-0764P, Bioss, Beijing, China) method was used to assay the cytotoxicity.
(§2) Figure 2 Effect of CA analogues in melanoma cells. (A–D) The different melanoma cell lines were treated with 0–50 µM analogues for 72 h, and then IC50 value was assayed (A dashed blue line: 50% inhibition rate; red box: analogues with high activity).

[6] = system: A375 cells; assay: CCK-8 cell viability, A375 melanoma cells; type: cell-based; conditions: Homo sapiens, A-375, 0–50 µM, 72 h
Description: as §1, §2

[7] = system: A875 cells; assay: CCK-8 cell viability, A875 melanoma cells; type: cell-based; conditions: 0–50 µM, 72 h
Description: as §1, §2

[8] = system: SK-MEL-1 cells; assay: CCK-8 cell viability, SK-MEL-1 melanoma cells; type: cell-based; conditions: Homo sapiens, 0–50 µM, 72 h
Description: as §1, §2

[9] = system: multiple types of cancer cells and normal cells; assay: Specificity towards different tumor and normal cell lines; type: cell-based; conditions: 0–200 µM, 72 h; Figure 3A
Description: as §1
(§3) Figure 3 CAD-14 inhibited the proliferation of A375 cells. (A) The different tumor and normal cell lines were treated with 0–200 µM CAD-14 for 72 h, and then IC50 value was assayed. (B) Cells were treated with 0–0.02 µM CAD-14 for 14 days, and Giemsa staining was used to conduct colony formation assays; the histogram depicts the number of colonies. (C,D) Cells were treated with 0–0.8 µM CAD-14 for 24 h; then, the related proteins were tested via Western blotting. Histograms depict the intensity ratio. (E,F) Cells were treated with 0–0.4 µM CAD-14 for 24 h, then the DNA content of the cells was determined with a flow cytometry system. Histograms show the percentage of cells in G0/G1, G2/M, and S phase. Values represent the means ± SD. * p < 0.05, ** p < 0.01 versus “Ctrl” group.

[10] = system: A375 cells; assay: Colony formation assay; type: cell-based; conditions: A375, 0–0.02 µM, 14 days, versus Ctrl
Description: The A375 cells were plated onto six-well plates (500 cells/well), and after 24 h, CAD-14 (0–0.02 µM) was added to the medium and incubated for an additional 14 days. Cells were fixed in methanol and stained with Giemsa. The colonies were then scored and photographed.
as §3

[11] = system: Bak, Bcl-2 and survivin in A375 cells; assay: Western blotting of apoptosis-related proteins; type: cell-based; conditions: A375, 0–0.8 µM, 24 h, dose-dependent
Description: (§4) The A375 cells were treated with CAD-14 (0–0.8 µM), alone or with indicated agents, for 24 h. Whole-cell extracts were loaded for SDS-PAGE gels depending on the target protein sizes, and were explored with protein-specific antibodies followed by HRP-conjugated secondary antibodies. Bands corresponding to the antibodies were detected via ECL chemiluminescence.
as §3

[12] = system: A375 cells; assay: Cell cycle analysis by flow cytometry; type: cell-based; conditions: A375, 0–0.4 µM, 24 h, concentration-dependent
Description: The A375 cells were incubated with CAD-14 (0–0.4 µM) for 24 h. The cells were collected, washed in PBS, and fixed in ice-cold 75% (v/v) ethanol overnight at –20 °C. The cells were re-suspended, and the DNA content was tested using flow cytometry.
as §3

[13] = biological target: T1, ENO1 (Homo sapiens, UniProt P06733); assay: Western blot and cellular thermal shift assay (CETSA) of ENO1; type: binding
T1 construct: endogenous in cells; host or cells: A375 cells (whole-cell extracts or cell lysates)
T1 sequence (P06733 whole entry): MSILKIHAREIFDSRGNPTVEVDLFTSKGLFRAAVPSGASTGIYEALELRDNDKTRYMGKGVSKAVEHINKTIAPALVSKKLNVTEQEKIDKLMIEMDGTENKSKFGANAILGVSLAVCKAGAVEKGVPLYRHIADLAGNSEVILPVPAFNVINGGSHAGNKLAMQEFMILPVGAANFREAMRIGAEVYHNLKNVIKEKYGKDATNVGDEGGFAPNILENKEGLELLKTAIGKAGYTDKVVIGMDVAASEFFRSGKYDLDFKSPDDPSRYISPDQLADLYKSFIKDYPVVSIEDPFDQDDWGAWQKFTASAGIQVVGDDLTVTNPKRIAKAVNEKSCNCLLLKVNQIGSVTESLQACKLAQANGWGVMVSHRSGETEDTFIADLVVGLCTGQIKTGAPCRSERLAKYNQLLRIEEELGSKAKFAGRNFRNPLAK
Description: as §4
In A375 cell lysates, CAD-14 (0.4 μM) was added for 24 h at different temperatures. Western blotting was used to quantify the effects on ENO1 protein levels.
(§5) Figure 4 Validation of the CAD-14 anti-melanoma pathway. (A) Cells were treated with 0–0.8 µM CAD-14 for 24 h, and the ENO1 was assayed via Western blotting. […] (C) Molecular docking analysis of ENO1 and CAD-14. (D) Cells were treated with 0–0.8 µM CAD-14 for 24 h, and the p-38/P-p38 were assayed via Western blot. Histograms show the intensity ratio. Values represent the means ± SD. * p < 0.05, ** p < 0.01 versus “Ctrl” group.

[14] = system: p38 pathway in A375 cells; assay: Western blot of p38/P-p38; type: cell-based; conditions: A375, 0–0.8 µM, 24 h
Description: as §4, §5

[15] = Developmental/acute toxicity test of zebrafish embryos; type: in vivo; conditions: AB wild-type, in vivo; zebrafish embryos, 96 h exposure; read-out: median death concentration (IC50)
Excerpt: (§6) The AB-wild-type adult zebrafish (three months old) were purchased from the Institute of Aquatic Biology, Chinese Academy of Sciences (Wuhan, China). During breeding, male and female fish were placed in separate spawning boxes at a 1:1 ratio. Then, early in the morning, they were mixed and laid eggs. During the exposure period, 96-well plates containing normal embryos were randomly selected and viewed daily under a light microscope to assess the developmental toxicity.
(§7) (A) The embryo morphology after CAD-14 treatment for 0–96 h. (B) Survival statistics in different time and concentration.

[16] = system: zebrafish embryos; assay: as above; type: in vivo; conditions: 96 h
Excerpt: as §6, §7

## O=C/C=C/c1ccccc1 [CA, Cinnamaldehyde]
[1]; staining of tumor tissues, Figure 5G
  Ki67-positive cells in tumor tissues: obvious decrease in Ki67-positive cells
[2]
  lethal dose (LD50): 74.8 mg/kg
[3]
  micronucleus rate in hepatocytes: increased
[4]
  micronucleus rate in hepatocytes: increased

## O=C/C=C/c1cccc2ccccc12 [CAD-2, (E)-3-(naphthalen-1-yl)acrylaldehyde]
[5]
  activity in initial screening: strong activity

## O=C/C=C/c1ccccc1Br [CAD-7, (E)-3-(2-bromophenyl)acrylaldehyde]
[5]
  activity in initial screening: strong activity

## O=C/C=C/c1cccc(Cl)c1 [CAD-10, (E)-3-(3-chlorophenyl)acrylaldehyde]
[5]
  activity in initial screening: strong activity

## O=C/C=C/c1cccc(Cl)c1Cl [CAD-12, (E)-3-(2,3-dichlorophenyl)acrylaldehyde]
[5]
  activity in initial screening: strong activity

## O=C/C=C/c1c(F)c(F)c(F)c(F)c1F [CAD-14, (E)-3-(perfluorophenyl)acrylaldehyde]
[6]
  IC50: 580 nM
[7]
  IC50: 650 nM
[8]
  IC50: 820 nM
[5]
  activity in initial screening: strong activity
[5]; times stronger than CA
  effect relative to CA: 80 times
[5]; times stronger than DTIC, Figure 2D
  effect relative to positive drug DTIC: ~15 times
[9]
  specificity towards cell types: inhibited A375 cells more effectively than other cancer cells and was less sensitive to normal cell lines
[10]
  number of colonies: significantly reduced the number of colonies
[11]
  expression of anti-apoptotic protein Bcl-2: substantially diminished
  expression of anti-apoptotic protein survivin: substantially diminished
  expression of pro-apoptotic protein Bak: strongly increased
[12]
  cell cycle arrest: markedly induced S phase arrest
[13]; 0.4 μM, A375 cell lysates
  thermal stability of ENO1 (temperature-dependent CETSA): decreased the thermal stability of ENO1
[13]; Western blot 0–0.8 µM 24 h and CETSA
  stability of ENO1 protein: changed the stability of ENO1 protein in a temperature- and dose-responsive manner
[14]
  phosphorylation of p38: suppressed the phosphorylation of p38
  total p38 protein levels: did not affect its total protein levels
[1]; 5 mg/kg/day, two weeks, compared with PBS group
  tumor growth: can inhibit the tumor growth
[1]; CAD-14 5 mg/kg/day vs dacarbazine 10 mg/kg/day
  tumor growth effect compared with dacarbazine: the effect was better than dacarbazine
[1]; immunofluorescent staining, Figure 5H
  ENO1 expression in tumor tissues: fewer ENO1 accumulated
[15]
  LC50 (median lethal concentration) at 96 h: 83700 nM
[16]; 8 μM
  Malformation Rates: 0.00%
  Mortalities: 0.00%
  Number of Deaths: 0
  Number of Deformities: 0
  Survival Number: 20
[16]; 16 μM
  Malformation Rates: 0.00%
  Mortalities: 0.00%
  Number of Deaths: 0
  Number of Deformities: 0
  Survival Number: 20
[16]; 32 μM
  Malformation Rates: 0.00%
  Mortalities: 0.00%
  Number of Deaths: 0
  Number of Deformities: 0
  Survival Number: 20
[16]; 64 μM
  Malformation Rates: 0.00%
  Mortalities: 0.00%
  Number of Deaths: 0
  Number of Deformities: 0
  Survival Number: 20
[16]; 128 μM
  Mortalities: 90.00%
  Number of Deaths: 18
  Number of Deformities: 0
  Survival Number: 2

## O=C/C=C/c1cccnc1 [CAD-20, (E)-3-(pyridin-3-yl)acrylaldehyde]
[5]
  activity in initial screening: strong activity

## (E)-3-(pyridin-3-yl)acrylaldehyde [CAD-19]
[5]
  activity in initial screening: strong activity
